The record followed here is patent US20030027867A1, “Use of R-NSAID compounds for anti-HIV treatment” (Myriad Genetics, Incorporated, priority 2001, published 2003).

Data set [1] concerns HIV-1. Conditions: TC50/IC50 in human PBMCs.
Description: (§1) R-flurbiprofen was supplied in powder form from Catalytica Pharmaceutical Inc., Greenville, N.C. and was solubilized in DMSO to yield a 200 mM stock solution. For these studies, the compound was tested at a high-test concentration of 1000 μM along with eight serial half-logarithmic dilutions (1000 μM down to 0.01 μM). AZT was used as a positive control antiviral compound.
(§2) Fresh human blood was obtained commercially from Interstate Blood Bank, Inc. (Memphis, Tenn.). […] The laboratory-adapted HIV-1IIIB strain was propagated and tittered in fresh human PBMCs; pre-titered aliquots of HIV-1ROJO and Hiv-1IIIB were removed from the freezer (−80° C.) and thawed rapidly to room temperature in a biological safety cabinet immediately before use. Phytohemagglutinin (PHA-P) was obtained from Sigma (St. Louis, Mo.) and recombinant IL-2 was obtained from Amgen (San Francisco, Calif.).
(§3) Fresh human PBMCs were isolated from screened donors, seronegative for HIV and HBV. Leukophoresed blood was diluted 1:1 with Dulbecco's phosphate buffered saline (PBS), layered over 14 mL of Ficoll-Hypaque density gradient in a 50 mL centrifuge tube and then centrifuged for 30 minutes at 600×g. Banded PBMCs were aspirated from the resulting interface and subsequently washed 2× with PBS by low speed centrifugation. After the final wash, cells were enumerated by trypan blue exclusion and re-suspended at 1×10^7 cells/mL in RPMI 1640 supplemented with 15% Fetal Bovine Serum (FBS), 2 mM L-glutamine, 4 μg/mL PHA-P. The cells were allowed to incubate for 48-72 hours at 37° C. After incubation, PBMCs were centrifuged and reset in RPMI 1640 with 15% FBS, 2 mM L-glutamine, 100 U/ml penicillin, 100 μg/mL streptomycin, 10 μg/mL gentamycin, and 20 U/mL recombinant human IL-2. PBMCs were maintained in this medium at a concentration of 1-2×10^6 cells/mL with biweekly medium changes until used in the assay protocol.
(§4) For the standard PBMC assay, PHA-P stimulated cells from at least two normal donors were pooled, diluted in fresh medium to a final concentration of 1×10^6 cells/mL, and plated in the interior wells of 96 well round bottom microplate at 50 μL/well (5×10^4 cells/well). Test drug dilutions were prepared at a 2× concentration in microtiter tubes and 100 μL of each concentration was placed in appropriate wells in a standard format. 50 μL of a predetermined dilution of virus stock was placed in each test well (final MOI ≈0.1). Wells with cells and virus alone were used for virus control. Separate plates were prepared identically without virus for drug cytotoxicity studies using an XTT assay system. The PBMC cultures were maintained for seven days following infection, at which time cell-free supernate samples were collected and assayed for reverse transcriptase activity as described below. […]
A short description of a further data set: in vitro. Format: cell-based. Conditions: human. How it is done: At assay termination the assay plates were stained with the soluble tetrazolium-based dye MTS (CellTiter Reagent, Promega) to determine cell viability and quantify compound toxicity. MTS is metabolized by the mitochondria enzymes of metabolically active cells to yield a soluble formazan product, allowing the rapid quantitative analysis cell viability and compound cytotoxicity. […] At termination of the assay, 20 μl of MTS reagent was added per well. The wells were incubated overnight for the HIV cytoprotection assay at 37° C. The incubation intervals were chosen based on empirically determined times for optimal dye reduction in each cell type. Adhesive plate sealers were used in place of the lids, the sealed plate was inverted several times to mix the soluble formazan product and the plate was read spectrophotometrically at 490 nm with a Molecular Devices Vmax plate reader.

Data set [2] has as its system HIV-1. Briefly: microbe, parasite or virus in culture. Conditions: Human immunodeficiency virus 1, PBMC, 168 h.
Description: as §1, §2, §3, §4

The structures appear in SMILES notation.

Regarding `CC(C(=O)O)c1ccc(-c2ccccc2)c(F)c1` (stereo not drawn) [R-flurbiprofen, 3-fluoro-4-phenylhydratropic acid], in the data set with HIV-1 [1], the “Therapeutic Index” value stood at 3.1. For the same compound, the CC50 (usually the concentration giving 50% cytotoxicity) at 7 days in the data set “in vitro” is 731 µM. In addition, half-maximal inhibition with HIV-1 [2] (IC50) was put at 238 µM.
In the same order, the values of `Cc1cn([C@H]2C[C@H](N=[N+]=[N-])[C@@H](CO)O2)c(=O)[nH]c1=O` [AZT, 3′-Azido-3′-deoxythymidine] are above 400.00, above 4 µM and 0.01 µM.
